According to PMC10997755, “Discovery of a small-molecule inhibitor that traps Polθ on DNA and synergizes with PARP inhibitors” (Nature Communications, 2024):
Converted amounts (≈) assume the structure as drawn. “And” between values parts separate entries of the source, which are not always exact repeats. Equal values may be shown once.

How the values were obtained:
Polθ-pol = target: T1, Polθ-pol (Homo sapiens, UniProt O75417); test: Relative rate of Polθ-pol dAMP addition; type: biochemical
T1 construct: purified recombinant human Polθ-pol (comprising amino acid residues 1792–2590); made in house
T1 sequence (O75417 1792-2590): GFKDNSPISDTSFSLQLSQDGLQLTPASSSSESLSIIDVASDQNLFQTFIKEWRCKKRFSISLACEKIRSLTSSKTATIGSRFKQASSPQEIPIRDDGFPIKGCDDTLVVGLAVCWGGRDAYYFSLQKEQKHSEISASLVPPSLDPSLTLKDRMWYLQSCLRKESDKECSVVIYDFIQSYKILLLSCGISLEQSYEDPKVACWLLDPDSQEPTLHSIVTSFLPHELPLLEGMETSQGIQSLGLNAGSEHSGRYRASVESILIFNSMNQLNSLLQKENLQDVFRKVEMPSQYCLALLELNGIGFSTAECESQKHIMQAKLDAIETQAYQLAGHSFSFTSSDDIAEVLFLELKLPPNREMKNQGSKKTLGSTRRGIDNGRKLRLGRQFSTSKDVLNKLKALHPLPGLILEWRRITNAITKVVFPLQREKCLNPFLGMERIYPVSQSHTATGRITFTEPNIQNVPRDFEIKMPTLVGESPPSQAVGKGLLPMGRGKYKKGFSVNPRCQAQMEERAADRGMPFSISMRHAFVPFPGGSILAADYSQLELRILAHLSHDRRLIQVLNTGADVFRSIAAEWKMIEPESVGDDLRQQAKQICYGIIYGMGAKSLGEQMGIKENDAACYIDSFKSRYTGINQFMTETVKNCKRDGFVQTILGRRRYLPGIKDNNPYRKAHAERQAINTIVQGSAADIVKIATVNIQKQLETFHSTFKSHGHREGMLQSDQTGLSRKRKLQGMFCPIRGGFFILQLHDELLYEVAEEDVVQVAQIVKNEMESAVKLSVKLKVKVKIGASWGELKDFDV
Procedure: Relative rate of Polθ-pol dAMP addition. The relative rates of dAMP incorporation by Polq-pol in the presence of DMSO or MC160385 with various concentrations of dATP were measured using the following primer extension assay in vitro. 2 nM or Polθ-pol was incubated with 5’ ^32P-γ-ATP labeled 100 nM primer-template (RP469D/RP486) in 1X buffer (25 mM TrisHCl pH 7.8, 0.01% NP40, 10% glycerol, 1 mM DTT, 10 mM MgCl2, 0.1 mg/ml BSA) at room temp. 2.5% DMSO, 7.5 nM or 12 nM of MC160385 was added. Reactions were than initiated by the addition of 20, 50, 100, 200, or 300 μM dATP at room temp. Aliquots of the reactions were removed and terminated by the addition of 50 mM EDTA at 3, 3.5, 4 and 5 min after the reaction was initiated. Radio-labeled DNA was then resolved via denaturing 20% PAGE and visualized by Typhoon PhosphorImager (GE Amersham). Rates of dAMP incorporation were calculated from % extension of the prime-template which was determined using ImageJ software. Relative rate of ddCMP addition on DNA/DNA and DNA/RNA. 25 nM nucleic acid DNA/DNA or DNA/RNA primer-template (RP559/RP702 or RP559/RP702R) was mixed with 1X reaction buffer (20 mM TrisHCl pH 7.5, 0.01% NP-40, 0.5 mM DTT, 10% glycerol, 0.1 mg/ml BSA, 10 mM MgCl2) in the presence of 250 μM ddCTP at room temp. Next, 2 μM RTx-161 or 2.5% DMSO was added. Reactions were initiated by the addition of 10 nM Polθ-pol. Reaction aliquots were removed and terminated by the addition of 50 mM EDTA at the indicated time points. Radio-labeled DNA was then resolved via denaturing 20% PAGE and visualized by Typhoon PhosphorImager. Percent primer extension by single ddCMP addition at each time point was calculated from % extension of the prime-template which was determined using ImageJ software.

Solubility (2% DMSO/PBS) = type: physicochemical; details: aqueous buffer, kinetic from dmso stock
Brca1-WT MEFs = test: Clonogenic assay; type: cell-based, mouse; details: for pooled Average (normalized) / Normalized: MEF WT; for pooled Average (normalized): pooled average of 3 experiments; for Normalized: single experiments 1-3, 0 micro M = 100; for survival relative to 0 uM / survival relative to 0 uM, mean of the four experiments: WT; for survival relative to 0 uM: experiments 2023-04-07 and 2023-04-13; for survival relative to 0 uM, mean of the four experiments: last block without head (mean of 4)
Procedure: Cells were plated on six or twelve or twenty-four well plates. In six well plate, 1000 cells/ well of BRCA2 -/-, BRCA1 -/-, PALB2 mut and 500 cells/ well of wildtype pair was plated; In twelve well plate, 600 cells/ well of BRCA2 -/-, BRCA1 -/-, PALB2 mut and 400 cells/ well of wildtype pair was plated; In twenty-four well plate, 500 cells/ well of BRCA2 -/-, BRCA1 -/-, PALB2 mut and 300 cells/ well of wildtype pair was plated. […] The medium was replaced every 2 days until the colonies were ready for staining in 10–12 days. For staining: Medium was removed from plates, and cells were rinsed with PBS. Fixation was carried out with—Water: Ethanol: Acetic acid (5:4:1) for 30 min followed by staining of colonies with 0.5% crystal violet in Water: Ethanol (3:2) for 2 h at room temperature. The plates were rinsed with water and left for drying overnight at room temperature. Colonies were then counted and IC50 was calculated using results from 3 or more independent experiments. Response curves are shown as mean colony formation +/- S.E.M.

CN(C(=O)Oc1ccc(C(F)(F)F)cc1C(F)(F)F)c1ccc(F)cc1 [MC160385]
effect on Km for dATP (Polθ-pol): slightly reducing
effect on Vmax of dAMP incorporation (Polθ-pol): significantly reduces
relative velocity of dAMP incorporation (avg) (Polθ-pol; 7.5 nM MC160385, dATP 20 uM): 2.69 and 2.7
relative velocity of dAMP incorporation (avg) (Polθ-pol; 7.5 nM MC160385, dATP 50 uM): 5.36 and 5.4
relative velocity of dAMP incorporation (avg) (Polθ-pol; 7.5 nM MC160385, dATP 100 uM): 6.32 and 6.3
relative velocity of dAMP incorporation (avg) (Polθ-pol; 7.5 nM MC160385, dATP 200 uM): 6.56 and 6.6
relative velocity of dAMP incorporation (avg) (Polθ-pol; 7.5 nM MC160385, dATP 300 uM): 6.245 and 6.2
relative velocity of dAMP incorporation (avg) (Polθ-pol; 12 nM, dATP 20 uM): 2.3
relative velocity of dAMP incorporation (avg) (Polθ-pol; 12 nM, dATP 50 uM): 4.065
relative velocity of dAMP incorporation (avg) (Polθ-pol; 12 nM, dATP 50 uM, listed as MC160386): 4.1
relative velocity of dAMP incorporation (avg) (Polθ-pol; 12 nM, dATP 100 uM): 4.94
relative velocity of dAMP incorporation (avg) (Polθ-pol; 12 nM, dATP 100 uM, listed as MC160386): 4.9
relative velocity of dAMP incorporation (avg) (Polθ-pol; 12 nM, dATP 200 uM): 4.6
relative velocity of dAMP incorporation (avg) (Polθ-pol; 12 nM, dATP 300 uM): 4.95
solubility (Solubility (2% DMSO/PBS)): 56 µM (≈ 21.3 µg/mL)

CN(C(=O)Oc1c(N2CCN(CCO)C2=O)cc(C(F)(F)F)cc1C(F)(F)F)c1ccc(F)cc1 [RTx-161]
pooled Average (normalized) (Brca1-WT MEFs; RTX-161 2.5 micro M): 86.6767
Normalized (Brca1-WT MEFs; RTX-161 2.5 micro M): 94.0299 and 78.7879 and 87.2314
pooled Average (normalized) (Brca1-WT MEFs; RTX-161 5 micro M): 84.2267
Normalized (Brca1-WT MEFs; RTX-161 5 micro M): 88.0597 and 81.8182 and 82.8237
pooled Average (normalized) (Brca1-WT MEFs; RTX-161 10 micro M): 87.7867
Normalized (Brca1-WT MEFs; RTX-161 10 micro M): 100 and 72.7273 and 90.6469
pooled Average (normalized) (Brca1-WT MEFs; RTX-161 20 micro M): 78.36
Normalized (Brca1-WT MEFs; RTX-161 20 micro M): 65.6716 and 68.1818 and 101.237
survival relative to 0 uM (Brca1-WT MEFs; 150 cells/well, RTx-161 1.25 uM): 95.92% and 83.78%
survival relative to 0 uM (Brca1-WT MEFs; 150 cells/well, RTx-161 2.5 uM): 108.16% and 89.19%
survival relative to 0 uM (Brca1-WT MEFs; 150 cells/well, RTx-161 5 uM): 104.08% and 81.08%
survival relative to 0 uM (Brca1-WT MEFs; 150 cells/well, RTx-161 10 uM): 102.04% and 78.38%
survival relative to 0 uM (Brca1-WT MEFs; 150 cells/well, RTx-161 20 uM): 87.76% and 86.49%
survival relative to 0 uM (Brca1-WT MEFs; 300 cells/well, RTx-161 1.25 uM): 109.62% and 92.19%
survival relative to 0 uM (Brca1-WT MEFs; 300 cells/well, RTx-161 2.5 uM): 88.46% and 93.75%
survival relative to 0 uM (Brca1-WT MEFs; 300 cells/well, RTx-161 5 uM): 92.31% and 106.25%
survival relative to 0 uM (Brca1-WT MEFs; 300 cells/well, RTx-161 10 uM): 96.15% and 100.00%
survival relative to 0 uM (Brca1-WT MEFs; 300 cells/well, RTx-161 20 uM): 103.85% and 96.88%
survival relative to 0 uM, mean of the four experiments (Brca1-WT MEFs; RTx-161 1.25 uM): 95.38%
survival relative to 0 uM, mean of the four experiments (Brca1-WT MEFs; RTx-161 2.5 uM): 94.89%
survival relative to 0 uM, mean of the four experiments (Brca1-WT MEFs; RTx-161 5 uM): 95.93%
survival relative to 0 uM, mean of the four experiments (Brca1-WT MEFs; RTx-161 10 uM): 94.14%
survival relative to 0 uM, mean of the four experiments (Brca1-WT MEFs; RTx-161 20 uM): 93.74%
